Experimental data as given in patent publication US11453700B2, “Peptide having activities of skin whitening and uses thereof” (CAREGEN CO., LTD., priority 2019, dated 2022).

Legend:
Melanophilin (Mlph) = assay: Expression of melanin production-associated genes (RT-PCR), Mlph; format: cell-based, mouse; details: B16F10 cells, 200 ng/mL α-MSH, peptide 1-160 μM, 72 hours, FIG. 3
Description: (§1) In detail, a mouse melanoma cell B16F10 was seeded in a 6-well plate at a density of 5×10^4 cells/well, followed by incubation for 16 hours. Thereafter, the culture medium was replaced by a medium supplemented with 2% (v/v) serum, and then 200 ng/mL of α-MSH was added thereto. Together therewith, the peptide composed of the amino acid sequence of SEQ ID NO: 1 was added at a concentration of 1 μM, 10 μM, 20 μM, 40 μM, 60 μM, 80 μM or 160 μM, respectively, followed by incubation for 72 hours. mRNAs were extracted from the cultured cells, and the extracted mRNAs were reverse transcribed using a cDNA synthesis kit & PCR pre-mix (Intron, Korea), thereby synthesizing cDNA, respectively. Thereafter, a polymerase chain reaction (PCR) was carried out using each cDNA and Rab27a, Melanophilin (Mlph), myosin VA, MITF, tyrosinase, or TRP1 primer pairs. Moreover, a control, a negative control, and a positive control were used in the same manner as in Example 2.(1), and nucleotide sequences of the primers used herein are as in Table 3 below.

myosin VA = assay: Expression of melanin production-associated genes (RT-PCR), myosin VA; format: cell-based, mouse; details: B16F10 cells, 200 ng/mL α-MSH, peptide 1-160 μM, 72 hours, FIG. 3
Description: as §1

tyrosinase [1] = assay: Expression of melanin production-associated genes (RT-PCR), tyrosinase; format: cell-based, mouse; details: B16F10 cells, 200 ng/mL α-MSH, peptide 1-160 μM, 72 hours, FIG. 3
Description: as §1

tyrosinase [2] = target: T1, tyrosinase (Mus musculus, UniProt P11344); assay: Inhibitory effect on tyrosinase activity in α-MSH-stimulated B16F10 cells (L-DOPA, cell lysate); format: cell-based; details: 200 ng/mL α-MSH, peptide 1-160 μM, 72 hours, FIG. 2
T1 construct: the cells were lysed by adding 0.1 M sodium phosphate buffer (pH 6.8, lysis buffer) containing 1% (v/v) triton X-100; endogenous in cells; host or cells: B16F10 mouse melanoma cells, stimulated with alpha-MSH
T1 sequence (P11344 19-533): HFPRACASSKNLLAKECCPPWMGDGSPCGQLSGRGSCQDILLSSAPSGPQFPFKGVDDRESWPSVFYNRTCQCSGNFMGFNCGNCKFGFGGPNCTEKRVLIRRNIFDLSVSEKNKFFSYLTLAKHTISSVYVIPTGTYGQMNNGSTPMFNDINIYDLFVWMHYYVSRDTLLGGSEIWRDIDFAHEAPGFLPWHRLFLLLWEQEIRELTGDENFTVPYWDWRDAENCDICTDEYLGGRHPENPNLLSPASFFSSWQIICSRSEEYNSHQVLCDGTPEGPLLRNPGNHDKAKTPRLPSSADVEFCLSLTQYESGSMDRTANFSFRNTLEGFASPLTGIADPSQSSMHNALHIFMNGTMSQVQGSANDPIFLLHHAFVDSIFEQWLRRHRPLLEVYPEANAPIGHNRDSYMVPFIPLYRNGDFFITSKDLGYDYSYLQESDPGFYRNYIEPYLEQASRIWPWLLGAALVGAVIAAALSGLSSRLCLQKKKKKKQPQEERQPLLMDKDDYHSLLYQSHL
Description: In detail, a mouse melanoma cell B16F10 was seeded in a 6-well plate at a density of 5×10^4 cells/well, followed by incubation for 16 hours. Thereafter, the culture medium was replaced by a medium supplemented with 2% (v/v) serum, and then 200 ng/mL of α-MSH was added thereto. Together therewith, the peptide composed of the amino acid sequence of SEQ ID NO: 1 was added at a concentration of 1 μM, 10 μM, 20 μM, 40 μM, 60 μM, 80 μM or 160 μM, respectively, followed by incubation for 72 hours. The 6-well plate was placed on ice, and then washed with cold PBS twice. Thereafter, the cells were lysed by adding 0.1 M sodium phosphate buffer (pH 6.8, lysis buffer) containing 1% (v/v) triton X-100. Thereafter, the cells in the well plate were scraped using a scraper, and collected in a 1.5 mL tube. The collected cells were vortexed, and centrifuged at 15,000 rpm for 10 minutes to obtain a supernatant. Thereafter, proteins in the supernatant were quantified to adjust the protein content at a predetermined amount. A buffer was added thereto, and 90 μL total of the sample was dispensed in a 96-well plate.
Thereafter, 20 μL of 10 mM L-DOPA was added to each sample, and incubated at 37° C. for 1 hour. Then, absorbance at 475 nm was measured. […] From absorbance at […], the tyrosinase activity (fold) was determined.

MITF [3] = assay: Expression of melanin production-associated genes (RT-PCR), MITF; format: cell-based, mouse; details: B16F10 cells, 200 ng/mL α-MSH, peptide 1-160 μM, 72 hours, FIG. 3
Description: as §1

TRP1 = assay: Expression of melanin production-associated genes (RT-PCR), TRP1; format: cell-based, mouse; details: B16F10 cells, 200 ng/mL α-MSH, peptide 1-160 μM, 72 hours, FIG. 3
Description: as §1

B16F10 cells = assay: Inhibitory effect on melanin production in α-MSH-stimulated B16F10 cells; format: cell-based, mouse; details: 200 ng/mL α-MSH, peptide 10, 50, 100 or 200 μM, 72 hours, FIG. 1
Description: A mouse melanoma cell B16F10 was seeded in a 6-well plate at a density of 5×10^4 cells/well, followed by incubation for 16 hours. Thereafter, the culture medium was replaced by a medium supplemented with 2% (v/v) serum, and then 200 ng/mL of α-melanocyte-stimulating hormones (α-MSH) was added thereto to stimulate melanin production, together with each peptide of an amino acid sequence of SEQ ID NO: 1, at a concentration of 10 μM, 50 μM, 100 μM, or 200 μM, respectively, followed by incubation for 72 hours. Thereafter, the incubated cells were dissolved in 1 N NaOH, and absorbance at 450 nm was measured. In addition, an untreated group (Con) was used as a control, and only an α-MSH-treated group as a negative control and 200 μM or 500 μM of arbutin-, which is a known skin-whitening agent, and α-MSH-treated group as a positive control were used.
From absorbance at 450 nm, the content of melanin (%) produced by B16F10 cells was determined.

Rab27a [4] = assay: Expression of melanin production-associated genes (RT-PCR), Rab27a; format: cell-based, mouse; details: B16F10 cells, 200 ng/mL α-MSH, peptide 1-160 μM, 72 hours, FIG. 3
Description: as §1

Rab27a [5] = assay: Expression of melanin production-associated proteins (immunoblotting), Rab27a; format: cell-based, mouse; details: B16F10 cells, 200 ng/mL α-MSH, peptide 1-160 μM, 72 hours, FIG. 4
Description: (§2) In detail, a mouse melanoma cell B16F10 was seeded in a 6-well plate at a density of 5×10^4 cells/well, followed by incubation for 16 hours. Thereafter, the culture medium was replaced by a medium supplemented with 2% (v/v) serum, and then 200 ng/mL of α-MSH was added thereto. Together therewith, the peptide composed of the amino acid sequence of SEQ ID NO: 1 was added at a concentration of 1 μM, 10 μM, 20 μM, 40 μM, 60 μM, 80 μM or 160 μM, respectively, followed by incubation for 72 hours. Thereafter, the cultured cells were lysed, and then subjected to immunoblotting using antibodies (all available from santacruz biotechnology, USA) against Mlph, Rab27a, tyrosinase (TYR), or MITF. In addition, a control, a negative control, and a positive control were used in the same manner as in Example 2.(1).

MITF [6] = assay: Expression of melanin production-associated proteins (immunoblotting), MITF; format: cell-based, mouse; details: B16F10 cells, 200 ng/mL α-MSH, peptide 1-160 μM, 72 hours, FIG. 4
Description: as §2

Mlph = assay: Expression of melanin production-associated proteins (immunoblotting), Mlph; format: cell-based, mouse; details: B16F10 cells, 200 ng/mL α-MSH, peptide 1-160 μM, 72 hours, FIG. 4
Description: as §2

tyrosinase (TYR) = assay: Expression of melanin production-associated proteins (immunoblotting), TYR; format: cell-based, mouse; details: B16F10 cells, 200 ng/mL α-MSH, peptide 1-160 μM, 72 hours, FIG. 4
Description: as §2

**Q.** Which results are given for PNRYP [SEQ ID NO: 1]?
**A.** expression of Mlph gene (Melanophilin (Mlph)): inhibited; expression of myosin VA gene (myosin VA): inhibited; expression of tyrosinase gene (tyrosinase [1]): inhibited; tyrosinase activity (tyrosinase [2]): inhibited; expression of MITF gene (MITF [3]): inhibited; expression of TRP1 gene (TRP1): inhibited; melanin production (B16F10 cells): reduced in a concentration-dependent manner; expression of Rab27a gene (Rab27a [4]): inhibited; expression of Rab27a protein (Rab27a [5]): inhibited; expression of MITF protein (MITF [6]): inhibited; expression of Mlph protein (Mlph): inhibited; expression of TYR protein (tyrosinase (TYR)): inhibited
